Source: ChEMBL document CHEMBL5465560, “Selectivity Literature for EUbOPEN Chemogenomic Library” (2024)

Key:
[1] = target: High affinity nerve growth factor receptor (Homo sapiens, UniProt P04629); settings: at 10 µM
[2] = tested on: Tyrosine-protein kinase ABL1 (Homo sapiens), P00519 [T315I]; settings: at 10 µM
[3] = target: T1, Protein arginine N-methyltransferase 7 (Homo sapiens) (UniProt Q9NVM4); experiment: Selectivity interaction (Methyltransferase screen (radiometric assays, panel of 8 PRMTs, 21 protein lysine methyltransferases, 3 DNA methyltransferases, and one RNA methyltransferase)) EUB0000271b PRMT7
T1 sequence (whole entry): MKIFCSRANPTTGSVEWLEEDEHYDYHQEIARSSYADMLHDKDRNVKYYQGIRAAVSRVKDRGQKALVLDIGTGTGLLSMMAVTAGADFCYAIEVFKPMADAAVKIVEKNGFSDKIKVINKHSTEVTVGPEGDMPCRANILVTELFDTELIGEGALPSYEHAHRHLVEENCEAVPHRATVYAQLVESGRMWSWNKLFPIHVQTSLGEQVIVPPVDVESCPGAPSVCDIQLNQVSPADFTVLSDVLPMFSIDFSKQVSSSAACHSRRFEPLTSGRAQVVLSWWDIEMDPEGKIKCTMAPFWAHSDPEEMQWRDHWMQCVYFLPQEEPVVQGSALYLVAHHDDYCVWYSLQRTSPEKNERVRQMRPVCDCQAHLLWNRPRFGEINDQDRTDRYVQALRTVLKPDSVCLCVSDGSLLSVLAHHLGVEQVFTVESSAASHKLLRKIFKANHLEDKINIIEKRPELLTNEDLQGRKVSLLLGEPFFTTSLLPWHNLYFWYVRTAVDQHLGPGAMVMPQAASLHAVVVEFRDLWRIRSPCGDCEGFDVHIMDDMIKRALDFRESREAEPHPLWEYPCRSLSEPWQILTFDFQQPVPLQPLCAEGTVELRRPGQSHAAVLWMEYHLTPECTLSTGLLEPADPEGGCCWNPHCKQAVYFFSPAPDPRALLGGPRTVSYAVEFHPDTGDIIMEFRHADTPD

[4] = target: T2, Aurora kinase A (Homo sapiens) (UniProt O14965); experiment: Selectivity interaction (KinomeScan (DiscoverX)) EUB0001079a STK6; settings: at 1 µM
T2 sequence (whole entry): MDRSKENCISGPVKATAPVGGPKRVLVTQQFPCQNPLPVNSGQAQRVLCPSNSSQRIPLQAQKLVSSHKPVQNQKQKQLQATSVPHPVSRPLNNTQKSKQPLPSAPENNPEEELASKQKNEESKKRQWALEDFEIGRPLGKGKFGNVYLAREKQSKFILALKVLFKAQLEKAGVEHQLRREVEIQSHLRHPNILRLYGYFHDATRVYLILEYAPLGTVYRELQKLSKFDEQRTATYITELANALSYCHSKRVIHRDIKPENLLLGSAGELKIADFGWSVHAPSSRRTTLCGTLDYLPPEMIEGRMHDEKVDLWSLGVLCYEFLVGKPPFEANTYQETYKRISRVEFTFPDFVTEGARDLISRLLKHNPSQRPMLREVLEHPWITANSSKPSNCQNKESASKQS

[5] = target: T3, Inhibitor of nuclear factor kappa-B kinase subunit beta (Homo sapiens) (UniProt O14920); experiment: Selectivity interaction (KinomeScan (DiscoverX)) EUB0000655a IKBKB; settings: at 10 µM
T3 sequence (whole entry): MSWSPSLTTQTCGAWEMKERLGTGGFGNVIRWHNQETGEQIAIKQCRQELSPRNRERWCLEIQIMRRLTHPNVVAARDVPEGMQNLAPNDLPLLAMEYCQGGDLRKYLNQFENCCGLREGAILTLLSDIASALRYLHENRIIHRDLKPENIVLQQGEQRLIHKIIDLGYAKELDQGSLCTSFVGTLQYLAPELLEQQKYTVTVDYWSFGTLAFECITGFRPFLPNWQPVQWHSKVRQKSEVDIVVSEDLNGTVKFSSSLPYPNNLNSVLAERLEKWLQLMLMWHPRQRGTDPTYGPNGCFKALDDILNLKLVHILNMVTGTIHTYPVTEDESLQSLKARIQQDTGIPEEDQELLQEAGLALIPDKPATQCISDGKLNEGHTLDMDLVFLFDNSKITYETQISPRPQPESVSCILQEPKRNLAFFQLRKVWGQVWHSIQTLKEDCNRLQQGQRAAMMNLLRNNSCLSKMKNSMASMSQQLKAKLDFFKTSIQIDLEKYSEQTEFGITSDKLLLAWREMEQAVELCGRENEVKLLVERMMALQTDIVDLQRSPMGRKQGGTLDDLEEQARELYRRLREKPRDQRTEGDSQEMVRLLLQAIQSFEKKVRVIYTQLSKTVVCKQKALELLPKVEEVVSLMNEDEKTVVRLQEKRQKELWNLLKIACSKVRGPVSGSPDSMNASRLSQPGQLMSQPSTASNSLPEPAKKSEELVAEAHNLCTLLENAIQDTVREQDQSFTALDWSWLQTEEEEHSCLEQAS

[6] = target: T4, Membrane-associated tyrosine- and threonine-specific cdc2-inhibitory kinase (Homo sapiens) (UniProt Q99640); experiment: Selectivity interaction (KinomeScan (DiscoverX)) EUB0000607a PKMYT1; settings: at 10 µM
T4 sequence (whole entry): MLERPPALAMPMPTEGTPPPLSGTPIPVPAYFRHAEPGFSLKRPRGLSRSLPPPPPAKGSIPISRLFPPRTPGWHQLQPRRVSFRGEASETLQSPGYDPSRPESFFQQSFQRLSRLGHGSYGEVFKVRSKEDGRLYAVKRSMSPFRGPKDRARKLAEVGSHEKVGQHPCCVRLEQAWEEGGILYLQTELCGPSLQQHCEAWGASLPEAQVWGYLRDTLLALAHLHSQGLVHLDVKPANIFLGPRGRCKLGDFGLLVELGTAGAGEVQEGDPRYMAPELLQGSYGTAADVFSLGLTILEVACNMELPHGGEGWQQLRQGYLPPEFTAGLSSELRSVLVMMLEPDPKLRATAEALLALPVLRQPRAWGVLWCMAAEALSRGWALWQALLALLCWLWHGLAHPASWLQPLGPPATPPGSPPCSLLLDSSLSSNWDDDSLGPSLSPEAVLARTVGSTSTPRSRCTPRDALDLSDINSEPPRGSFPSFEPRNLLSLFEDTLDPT

[7] = target: Serine/threonine-protein kinase 10 (Homo sapiens) (UniProt O94804); experiment: Selectivity interaction (Kinase panel (KiNativ target engagement assay in Jurkat cells)) EUB0001635a STK10; type: cell-based; settings: Selectivity number of off-targets 0.0, Selectivity number of targets 233.0, Source Knowledge https://www.sciencedirect.com/science/article/pii/S2451945619300674?via%3Dihub, at 1 µM
Serine/threonine-protein kinase 10 (Homo sapiens), sequence (O94804 whole entry, looked up): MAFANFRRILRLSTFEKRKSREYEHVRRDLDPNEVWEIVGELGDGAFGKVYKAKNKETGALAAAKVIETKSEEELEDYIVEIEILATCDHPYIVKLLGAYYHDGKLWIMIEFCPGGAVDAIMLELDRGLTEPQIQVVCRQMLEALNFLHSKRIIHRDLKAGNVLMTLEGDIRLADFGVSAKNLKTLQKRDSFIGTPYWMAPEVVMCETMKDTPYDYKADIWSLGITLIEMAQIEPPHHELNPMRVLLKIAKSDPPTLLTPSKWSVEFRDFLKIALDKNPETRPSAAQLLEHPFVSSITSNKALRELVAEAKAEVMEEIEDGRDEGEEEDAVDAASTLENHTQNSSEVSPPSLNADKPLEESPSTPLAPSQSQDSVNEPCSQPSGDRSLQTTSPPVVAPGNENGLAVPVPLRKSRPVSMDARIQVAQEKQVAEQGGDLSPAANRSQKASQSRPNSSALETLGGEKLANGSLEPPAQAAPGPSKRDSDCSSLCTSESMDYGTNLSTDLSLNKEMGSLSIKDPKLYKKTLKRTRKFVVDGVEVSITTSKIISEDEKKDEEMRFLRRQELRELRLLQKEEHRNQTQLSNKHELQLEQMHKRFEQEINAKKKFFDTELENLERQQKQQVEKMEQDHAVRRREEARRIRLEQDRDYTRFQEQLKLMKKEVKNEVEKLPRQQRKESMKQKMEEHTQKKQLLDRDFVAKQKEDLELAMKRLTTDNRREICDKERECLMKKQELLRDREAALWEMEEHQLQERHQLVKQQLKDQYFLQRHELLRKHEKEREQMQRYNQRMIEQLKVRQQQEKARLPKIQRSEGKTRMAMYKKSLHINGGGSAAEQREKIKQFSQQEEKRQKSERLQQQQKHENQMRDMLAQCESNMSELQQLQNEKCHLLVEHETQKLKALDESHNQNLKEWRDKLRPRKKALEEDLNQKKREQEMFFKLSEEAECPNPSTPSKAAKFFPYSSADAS

High affinity nerve growth factor receptor, sequence (P04629 33-796 limits assumed): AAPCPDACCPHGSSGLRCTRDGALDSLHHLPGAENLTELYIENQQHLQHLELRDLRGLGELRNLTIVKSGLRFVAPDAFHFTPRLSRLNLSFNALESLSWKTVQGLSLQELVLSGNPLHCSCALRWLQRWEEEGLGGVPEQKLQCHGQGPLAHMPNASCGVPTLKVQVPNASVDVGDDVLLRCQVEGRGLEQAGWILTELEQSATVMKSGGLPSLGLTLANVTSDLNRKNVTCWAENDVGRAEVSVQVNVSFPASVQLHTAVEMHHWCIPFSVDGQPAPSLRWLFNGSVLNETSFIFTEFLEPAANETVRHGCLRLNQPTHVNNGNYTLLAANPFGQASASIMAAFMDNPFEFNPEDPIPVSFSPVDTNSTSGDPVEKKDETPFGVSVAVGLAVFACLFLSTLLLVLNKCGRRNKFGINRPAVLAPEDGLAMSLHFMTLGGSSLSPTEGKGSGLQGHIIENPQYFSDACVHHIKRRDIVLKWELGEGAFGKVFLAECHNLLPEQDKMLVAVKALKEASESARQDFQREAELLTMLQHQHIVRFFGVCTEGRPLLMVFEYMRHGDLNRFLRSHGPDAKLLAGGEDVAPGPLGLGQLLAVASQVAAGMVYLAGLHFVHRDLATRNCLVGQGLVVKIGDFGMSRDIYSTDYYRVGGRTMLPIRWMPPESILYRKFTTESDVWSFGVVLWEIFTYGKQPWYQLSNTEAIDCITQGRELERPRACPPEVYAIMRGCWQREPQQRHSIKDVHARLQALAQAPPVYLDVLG

In the case of `Cc1cc([C@@H](C)Nc2ccccc2C(=O)O)c2nc(N3CCOCC3)cc(=O)n2c1` [AZD-6482], the % of control [1] is reported as 88%.
With `CCN(CC)CCCCNc1ncc2cc(-c3cc(OC)cc(OC)c3)c(NC(=O)NC(C)(C)C)nc2n1` the % of control [2] was 100%.
`Cc1cc(C)cc([C@@H]2c3cc(C)ccc3NC(=O)CN2C(=O)c2ccc(Br)s2)c1` was tested, and the % of activity ([3]; at 1 µM) was 97.7% and the % of activity ([3]; at 10 µM) was 103%.
In the case of `Nc1cnc(N2CCc3cc(S(=O)(=O)Nc4c(F)cc(Cl)cc4F)cc(N4CCCC4=O)c32)nc1` [TP-020n], the % of control [4] is reported as 100%.
`CN(C)CCOc1ccc(-c2nc(-c3ccncc3)c(-c3ccc4c(c3)CC/C4=N\O)[nH]2)cc1` was tested, and the % of control [5] was 100%.
With `CNC(=O)Nc1ccc(-c2nc(N3CC4CCC(C3)O4)c3cnn(C4CCC5(CC4)OCCO5)c3n2)cc1` the % of control [6] was 75%.
`C=CC(=O)Nc1ccc(C(=O)Nc2[nH]nc3c2CN(C(=O)N[C@H](CN(C)C)c2ccccc2)C3(C)C)cc1` showed a % of engagement [7] of -1.6%.
